From US20230340011A1 (Asteroid Therapeutics, priority 2022, published 2023)

Legend:
LXRβ = LXRβ (Homo sapiens (Human), UniProt P55055); assay: In vitro assay LXRβ: PathHunter NHR CHO cells, LXRβ / Steroid Receptor Co-activator Peptide enzyme fragment complementation; type: cell-based; conditions: PathHunter NHR CHO cells, full-length human LXRβ and SRCP, chemiluminescent signal; read-out: LXRβ PPI
Outline: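 Co-activator recruitment measured by chemiluminescence after signal generation. The CHO line carries full-length human LXRβ tagged with ProLink and an SRCP–enzyme acceptor fusion in the nucleus; cells sat overnight at 37° C before testing, in charcoal-dextran filtered serum medium with 1% final vehicle.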

SREBP-2 = SREBP-2 (Homo sapiens (Human), UniProt Q12772); assay: In vitro assay SREBP-2: PathHunter U2OS SREBP-2 Nuclear Translocation Cell Line, U18666A-stimulated; type: cell-based; conditions: PathHunter U2OS SREBP-2 nuclear translocation cells, U18666A 10 μM, overnight (16 hours)

Chain of LXRβ (P55055 whole entry, the tested form may be a part): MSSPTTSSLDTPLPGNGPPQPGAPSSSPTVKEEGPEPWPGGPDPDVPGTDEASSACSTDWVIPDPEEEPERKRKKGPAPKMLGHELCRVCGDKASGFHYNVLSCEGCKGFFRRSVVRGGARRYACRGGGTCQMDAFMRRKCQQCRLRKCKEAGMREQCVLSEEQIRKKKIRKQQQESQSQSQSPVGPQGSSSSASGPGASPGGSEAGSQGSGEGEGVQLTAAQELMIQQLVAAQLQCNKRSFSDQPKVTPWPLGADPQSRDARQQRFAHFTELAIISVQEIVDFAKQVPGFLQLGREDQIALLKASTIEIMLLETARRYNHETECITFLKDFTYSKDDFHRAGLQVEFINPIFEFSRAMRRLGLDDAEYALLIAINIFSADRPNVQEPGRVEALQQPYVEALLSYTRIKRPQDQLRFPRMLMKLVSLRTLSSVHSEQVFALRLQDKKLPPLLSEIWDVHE

| SMILES | EC50 (LXRβ) [nM] | IC50 (SREBP-2) [nM] |
| --- | --- | --- |
| C[C@H](CCC(=O)N1CCC(C(C)(C)O)CC1)[C@H]1CC[C@H]2[C@@H]3CC=C4C[C@@H](O)CC[C@]4(C)[C@H]3CC[C@]12C [Example 378, (R)-4-((3S,8S,9S,10R,13R,14S,17R)-3-hydroxy-10,13-dimethyl-2,3,4,7,8,9,10,11,12,13,14,15,16,17-tetradecahydro-1H-cyclopenta[a]phenanthren-17-yl)-1-(4-(2-hydroxypropan-2-yl)piperidin-1-yl)pentan-1-one] | > 10000 | < 250 |
| Cc1cccnc1OC[C@@H](C)[C@H]1CC[C@H]2[C@@H]3CC=C4C[C@@H](O)CC[C@]4(C)[C@H]3CC[C@]12C [Example 261, (3S,8S,9S,10R,13S,14S,17R)-10,13-dimethyl-17-((S)-1-((3-methylpyridin-2-yl)oxy)propan-2-yl)-2,3,4,7,8,9,10,11,12,13,14,15,16,17-tetradecahydro-1H-cyclopenta[a]phenanthren-3-ol] | > 10000 | < 250 |
| COc1ncncc1N1CCN(C(=O)CC[C@@H](C)[C@H]2CC[C@H]3[C@@H]4CC=C5C[C@@H](O)CC[C@]5(C)[C@H]4CC[C@]23C)CC1 [Example 614, (4R)-4-[(1R,3aS,3bS,7S,9aR,9bS,11aR)-7-hydroxy-9a,11a-dimethyl-1H,2H,3H,3aH,3bH,4H,6H,7H,8H,9H,9aH,9bH,10H,11H,11aH-cyclopenta[a]phenanthren-1-yl]-1-[4-(4-methoxypyrimidin-5-yl)piperazin-1-yl]pentan-1-one] | > 10000 | < 250 |
| COC(=O)N1CCN(C(=O)CC[C@@H](C)[C@H]2CC[C@H]3[C@@H]4CC=C5C[C@](O)(C(F)(F)F)CC[C@]5(C)[C@H]4CC[C@]23C)CC1 [Example 285, methyl 4-((R)-4-((3S,8S,9S,10R,13R,14S,17R)-3-hydroxy-10,13-dimethyl-3-(trifluoromethyl)-2,3,4,7,8,9,10,11,12,13,14,15,16,17-tetradecahydro-1H-cyclopenta[a]phenanthren-17-yl)pentanoyl)piperazine-1-carboxylate] | > 10000 | 1000 to 10000 |
| COc1ccc2ccnc(N3CCN(C(=O)CC[C@@H](C)[C@H]4CC[C@H]5[C@@H]6CC=C7C[C@@H](O)CC[C@]7(C)[C@H]6CC[C@]45C)CC3)c2c1 [Example 627, (R)-4-((3S,8S,9S,10R,13R,14S,17R)-3-hydroxy-10,13-dimethyl-2,3,4,7,8,9,10,11,12,13,14,15,16,17-tetradecahydro-1H-cyclopenta[a]phenanthren-17-yl)-1-(4-(7-methoxyisoquinolin-1-yl)piperazin-1-yl)pentan-1-one] | > 10000 | < 250 |
| COc1cccnc1N1CCN(C(=O)CC[C@@H](C)[C@H]2CC[C@H]3[C@@H]4CC=C5C[C@@H](O)CC[C@]5(C)[C@H]4CC[C@]23C)CC1 [Example 613, (R)-4-((3S,8S,9S,10R,13R,14S,17R)-3-hydroxy-10,13-dimethyl-2,3,4,7,8,9,10,11,12,13,14,15,16,17-tetradecahydro-1H-cyclopenta[a]phenanthren-17-yl)-1-(4-(3-methoxypyridin-2-yl)piperazin-1-yl)pentan-1-one] | > 10000 | < 250 |
| C[C@H](CCC(=O)N1CCN(C(C)(C)C)CC1)[C@H]1CC[C@H]2[C@@H]3CC=C4C[C@@H](O)CC[C@]4(C)[C@H]3CC[C@]12C [Example 557, (4R)-4-[(1R,3aS,3bS,7S,9aR,9bS,11aR)-7-hydroxy-9a,11a-dimethyl-1H,2H,3H,3aH,3bH,4H,6H,7H,8H,9H,9aH,9bH,10H,11H,11aH-cyclopenta[a]phenanthren-1-yl]-1-(4-tert-butylpiperazin-1-yl)pentan-1-one] | > 10000 | 250 to 1000 |
| C[C@H](CCC(=O)N1CCN(C(=O)c2ccn(C)n2)CC1)[C@H]1CC[C@H]2[C@@H]3CC=C4C[C@@H](O)CC[C@]4(C)[C@H]3CC[C@]12C [Example 539, (4R)-4-[(1R,3aS,3bS,7S,9aR,9bS,11aR)-7-hydroxy-9a,11a-dimethyl-1H,2H,3H,3aH,3bH,4H,6H,7H,8H,9H,9aH,9bH,10H,11H,11aH-cyclopenta[a]phenanthren-1-yl]-1-[4-(1-methyl-1H-pyrazole-3-carbonyl)piperazin-1-yl]pentan-1-one] | > 10000 | < 250 |
| C[C@H](CCC(=O)N1CCN(C(=O)c2cn(C)cn2)CC1)[C@H]1CC[C@H]2[C@@H]3CC=C4C[C@@H](O)CC[C@]4(C)[C@H]3CC[C@]12C [Example 538, (4R)-4-[(1R,3aS,3bS,7S,9aR,9bS,11aR)-7-hydroxy-9a,11a-dimethyl-1H,2H,3H,3aH,3bH,4H,6H,7H,8H,9H,9aH,9bH,10H,11H,11aH-cyclopenta[a]phenanthren-1-yl]-1-[4-(1-methyl-1H-imidazole-4-carbonyl)piperazin-1-yl]pentan-1-one] | > 10000 | < 250 |
| C[C@H](CCC(=O)N1CCC(CO)CC1)[C@H]1CC[C@H]2[C@@H]3CC=C4C[C@@H](O)CC[C@]4(C)[C@H]3CC[C@]12C [Example 376, (4R)-4-[(1R,3aS,3bS,7S,9aR,9bS,11aR)-7-hydroxy-9a,11a-dimethyl-1H,2H,3H,3aH,3bH,4H,6H,7H,8H,9H,9aH,9bH,10H,11H,11aH-cyclopenta[a]phenanthren-1-yl]-1-[4-(hydroxymethyl)piperidin-1-yl]pentan-1-one] | 250 to 1000 | < 250 |
| C[C@H](CCC(=O)N1CCN(c2ccnn2C)[C@@H](C)C1)[C@H]1CC[C@H]2[C@@H]3CC=C4C[C@@H](O)CC[C@]4(C)[C@H]3CC[C@]12C [Example 608, (R)-4-((3S,8S,9S,10R,13R,14S,17R)-3-hydroxy-10,13-dimethyl-2,3,4,7,8,9,10,11,12,13,14,15,16,17-tetradecahydro-1H-cyclopenta[a]phenanthren-17-yl)-1-((S)-3-methyl-4-(1-methyl-1H-pyrazol-5-yl)piperazin-1-yl)pentan-1-one] | > 10000 | < 250 |
| C[C@H](CCC(=O)N1CCCC(C)(CO)CC1)[C@H]1CC[C@H]2[C@@H]3CC=C4C[C@@H](O)CC[C@]4(C)[C@H]3CC[C@]12C (stereo partly drawn) [Example 375, (4R)-4-((3S,8S,9S,10R,13R,14S,17R)-3-hydroxy-10,13-dimethyl-2,3,4,7,8,9,10,11,12,13,14,15,16,17-tetradecahydro-1H-cyclopenta[a]phenanthren-17-yl)-1-(4-(hydroxymethyl)-4-methylazepan-1-yl)pentan-1-one] | > 10000 | < 250 |
| C[C@H](CCC(=O)N1CCN(C)C(=O)C1)[C@H]1CC[C@H]2[C@@H]3CC=C4C[C@@H](O)CC[C@]4(C)[C@H]3CC[C@]12C [Example 361, 4-[(4R)-4-[(1R,3aS,3bS,7S,9aR,9bS,11aR)-7-hydroxy-9a,11a-dimethyl-1H,2H,3H,3aH,3bH,4H,6H,7H,8H,9H,9aH,9bH,10H,11H,11aH-cyclopenta[a]phenanthren-1-yl]pentanoyl]-1-methylpiperazin-2-one] | > 10000 | 250 to 1000 |
| C[C@H](COc1cccnc1)[C@H]1CC[C@H]2[C@@H]3CC=C4C[C@@H](O)CC[C@]4(C)[C@H]3CC[C@]12C [Example 180, (3S,8S,9S,10R,13S,14S,17R)-10,13-dimethyl-17-((S)-1-(pyridin-3-yloxy)propan-2-yl)-2,3,4,7,8,9,10,11,12,13,14,15,16,17-tetradecahydro-1H-cyclopenta[a]phenanthren-3-ol] | > 10000 | < 250 |
| CNC(=O)OC[C@@H](C)[C@H]1CC[C@H]2[C@@H]3CC=C4C[C@@H](O)CC[C@]4(C)[C@H]3CC[C@]12C [Example 351, (S)-2-((3S,8S,9S,10R,13S,14S,17R)-3-hydroxy-10,13-dimethyl-2,3,4,7,8,9,10,11,12,13,14,15,16,17-tetradecahydro-1H-cyclopenta[a]phenanthren-17-yl)propyl methylcarbamate] | > 10000 | < 250 |
| C[C@H](CCC(=O)N1CCN(C(=O)c2ccns2)CC1)[C@H]1CC[C@H]2[C@@H]3CC=C4C[C@@H](O)CC[C@]4(C)[C@H]3CC[C@]12C [Example 311, (R)-4-((3S,8S,9S,10R,13R,14S,17R)-3-hydroxy-10,13-dimethyl-2,3,4,7,8,9,10,11,12,13,14,15,16,17-tetradecahydro-1H-cyclopenta[a]phenanthren-17-yl)-1-(4-(isothiazole-5-carbonyl)piperazin-1-yl)pentan-1-one] | > 10000 | < 250 |
| C[C@H](CCC(=O)N1CCN(C(=O)c2ccncn2)CC1)[C@H]1CC[C@H]2[C@@H]3CC=C4C[C@@H](O)CC[C@]4(C)[C@H]3CC[C@]12C [Example 334, (R)-4-((3S,8S,9S,10R,13R,14S,17R)-3-hydroxy-10,13-dimethyl-2,3,4,7,8,9,10,11,12,13,14,15,16,17-tetradecahydro-1H-cyclopenta[a]phenanthren-17-yl)-1-(4-(pyrimidine-4-carbonyl)piperazin-1-yl)pentan-1-one] | > 10000 | < 250 |
| C#CC1(OC(C)C)CCN(C(=O)CC[C@@H](C)[C@H]2CC[C@H]3[C@@H]4CC=C5C[C@@H](O)CC[C@]5(C)[C@H]4CC[C@]23C)CC1 [Example 329, [(1R,3aS,3bS,7S,9aR,9bS,11aR)-7-hydroxy-9a,11a-dimethyl-1H,2H,3H,3aH,3bH,4H,6H,7H,8H,9H,9aH,9bH,10H,11H,11aH-cyclopenta[a]phenanthren-1-yl]-1-[4-ethynyl-4-(propan-2-yloxy)piperidin-1-yl]pentan-1-one] | 1000 to 10000 | < 250 |
